Measured values reported in patent US6451736B1, “Substituted aromatic thiocarboxylic acid amides and their use as herbicides” (Bayer Aktiengesellschaft, priority 1994, dated 2002).

Columns and labels:
Assay type in all cases: in vivo
[1] = system: Chenopodium; assay: Pre-emergence test/greenhouse; settings: Table B, after three weeks
Procedure: (§1) To produce a suitable preparation of active compound, 1 part by weight of active compound is mixed with the stated amount of solvent, the stated amount of emulsifier is added and the concentrate is diluted with water to the desired concentration.
(§2) Seeds of the test plants are sown in normal soil and, after 24 hours, watered with the preparation of active compound. It is expedient to keep constant the amount of water per unit area. The concentration of the active compound in the preparation is of no importance, only the amount of active compound applied per unit area being decisive. After three weeks, the degree of damage to the plants is rated in % damage in comparison to the development of the untreated control. The figures denote:
(§3) 0%=no action (like untreated control)

[2] = system: Maize; assay: Pre-emergence test/greenhouse; settings: Table B, after three weeks
Procedure: as §1, §2, §3

[3] = system: Abuthilon; assay: Pre-emergence test/greenhouse; settings: Table B, after three weeks
Procedure: as §1, §2, §3

[4] = system: Solanum; assay: Pre-emergence test/greenhouse; settings: Table B, after three weeks
Procedure: as §1, §2, §3

[5] = system: Amaranthus; assay: Pre-emergence test/greenhouse; settings: Table B, after three weeks
Procedure: as §1, §2, §3

[6] = system: Wheat; assay: Pre-emergence test/greenhouse; settings: Table B, after three weeks
Procedure: as §1, §2, §3

[7] = system: Portulaca; assay: Pre-emergence test/greenhouse; settings: Table B, after three weeks
Procedure: as §1, §2, §3

[8] = system: Matricaria; assay: Pre-emergence test/greenhouse; settings: Table B, after three weeks
Procedure: as §1, §2, §3

[9] = system: Chenopodium; assay: Post-emergence test/greenhouse; settings: Table C, after three weeks
Procedure: as §1
(§4) Test plants which have a height of 5-15 cm are sprayed with the preparation of active compound in such a way as to apply the particular amounts of active compound desired per unit area. After three weeks, the degree of damage to the plants is rated in % damage in comparison to the development of the untreated control.
(§5) 0%=no action (like intreated control)

[10] = system: Maize; assay: Post-emergence test/greenhouse; settings: Table C, after three weeks
Procedure: as §1, §4, §5

[11] = system: Abuthilon; assay: Post-emergence test/greenhouse; settings: Table C, after three weeks
Procedure: as §1, §4, §5

[12] = system: Veronica; assay: Post-emergence test/greenhouse; settings: Table C, after three weeks
Procedure: as §1, §4, §5

[13] = system: Solanum; assay: Post-emergence test/greenhouse; settings: Table C, after three weeks
Procedure: as §1, §4, §5

[14] = system: Amaranthus; assay: Post-emergence test/greenhouse; settings: Table C, after three weeks
Procedure: as §1, §4, §5

[15] = system: Wheat; assay: Post-emergence test/greenhouse; settings: Table C, after three weeks
Procedure: as §1, §4, §5

## CC(C)Oc1cc(-n2nc3n(c2=O)CCCC3)c(F)cc1C(N)=S [Example 17]
[1]; 30 g/ha
  degree of damage, Chenopodium: 100%
[2]; 30 g/ha
  degree of damage, Maize: 0%
[3]; 30 g/ha
  degree of damage, Abuthilon: 100%
[4]; 30 g/ha
  degree of damage, Solanum: 100%
[5]; 30 g/ha
  degree of damage, Amaranthus: 100%
[6]; 30 g/ha
  degree of damage, Wheat: 0%
[7]; 30 g/ha
  degree of damage, Portulaca: 100%
[8]; 30 g/ha
  degree of damage, Matricaria: 100%
[9]; 8 g/ha
  degree of damage, Chenopodium: 95%
[10]; 8 g/ha
  degree of damage, Maize: 10%
[11]; 8 g/ha
  degree of damage, Abuthilon: 100%
[12]; 8 g/ha
  degree of damage, Veronica: 100%
[13]; 8 g/ha
  degree of damage, Solanum: 100%
[14]; 8 g/ha
  degree of damage, Amaranthus: 100%
[15]; 8 g/ha
  degree of damage, Wheat: 10%

## CCS(=O)(=O)Nc1cc(-n2c(=O)cc(C(F)(F)F)n(C)c2=S)c(F)cc1C(N)=S [Example 21]
[1]; 60 g/ha
  degree of damage, Chenopodium: 100%
[2]; 60 g/ha
  degree of damage, Maize: 0%
[3]; 60 g/ha
  degree of damage, Abuthilon: 100%
[4]; 60 g/ha
  degree of damage, Solanum: 100%
[5]; 60 g/ha
  degree of damage, Amaranthus: 100%
[6]; 60 g/ha
  degree of damage, Wheat: 0%
[7]; 60 g/ha
  degree of damage, Portulaca: 100%
[8]; 60 g/ha
  degree of damage, Matricaria: 100%
[9]; 4 g/ha
  degree of damage, Chenopodium: 70%
[10]; 4 g/ha
  degree of damage, Maize: 60%
[11]; 4 g/ha
  degree of damage, Abuthilon: 90%
[12]; 4 g/ha
  degree of damage, Veronica: 100%
[13]; 4 g/ha
  degree of damage, Solanum: 100%
[14]; 4 g/ha
  degree of damage, Amaranthus: 100%
[15]; 4 g/ha
  degree of damage, Wheat: 5%

## CCS(=O)(=O)Nc1cc(N2C(=O)C(C)=C(C)C2=O)c(F)cc1C(N)=S [Example 22]
[1]; 250 g/ha
  degree of damage, Chenopodium: 100%
[2]; 250 g/ha
  degree of damage, Maize: 20%
[3]; 250 g/ha
  degree of damage, Abuthilon: 100%
[4]; 250 g/ha
  degree of damage, Solanum: 100%
[5]; 250 g/ha
  degree of damage, Amaranthus: 100%
[6]; 250 g/ha
  degree of damage, Wheat: 0%
[7]; 250 g/ha
  degree of damage, Portulaca: 95%
[8]; 250 g/ha
  degree of damage, Matricaria: 100%
[9]; 30 g/ha
  degree of damage, Chenopodium: 40%
[10]; 30 g/ha
  degree of damage, Maize: 0%
[11]; 30 g/ha
  degree of damage, Abuthilon: 100%
[12]; 30 g/ha
  degree of damage, Veronica: 20%
[13]; 30 g/ha
  degree of damage, Solanum: 100%
[14]; 30 g/ha
  degree of damage, Amaranthus: 100%
[15]; 30 g/ha
  degree of damage, Wheat: 15%

## CCS(=O)(=O)Nc1cc(N2C(=O)C3=C(CCCC3)C2=O)c(F)cc1C(N)=S [Example 23]
[1]; 60 g/ha
  degree of damage, Chenopodium: 95%
[2]; 60 g/ha
  degree of damage, Maize: 0%
[3]; 60 g/ha
  degree of damage, Abuthilon: 95%
[4]; 60 g/ha
  degree of damage, Solanum: 70%
[5]; 60 g/ha
  degree of damage, Amaranthus: 70%
[6]; 60 g/ha
  degree of damage, Wheat: 0%
[7]; 60 g/ha
  degree of damage, Portulaca: 95%
[8]; 60 g/ha
  degree of damage, Matricaria: 100%
[9]; 30 g/ha
  degree of damage, Chenopodium: 90%
[10]; 30 g/ha
  degree of damage, Maize: 50%
[11]; 30 g/ha
  degree of damage, Abuthilon: 95%
[12]; 30 g/ha
  degree of damage, Veronica: 100%
[13]; 30 g/ha
  degree of damage, Solanum: 100%
[15]; 30 g/ha
  degree of damage, Wheat: 0%

## Cn1c(C(F)(F)F)cc(=O)n(-c2cc(NS(C)(=O)=O)c(C(N)=S)cc2F)c1=S [Example 26]
[1]; 60 g/ha
  degree of damage, Chenopodium: 100%
[2]; 60 g/ha
  degree of damage, Maize: 0%
[3]; 60 g/ha
  degree of damage, Abuthilon: 100%
[4]; 60 g/ha
  degree of damage, Solanum: 90%
[5]; 60 g/ha
  degree of damage, Amaranthus: 80%
[6]; 60 g/ha
  degree of damage, Wheat: 0%
[7]; 60 g/ha
  degree of damage, Portulaca: 100%
[8]; 60 g/ha
  degree of damage, Matricaria: 100%
[9]; 15 g/ha
  degree of damage, Chenopodium: 50%
[10]; 15 g/ha
  degree of damage, Maize: 30%
[11]; 15 g/ha
  degree of damage, Abuthilon: 50%
[12]; 15 g/ha
  degree of damage, Veronica: 100%
[13]; 15 g/ha
  degree of damage, Solanum: 50%
[14]; 15 g/ha
  degree of damage, Amaranthus: 90%
[15]; 15 g/ha
  degree of damage, Wheat: 0%

## C#CC(C)Oc1cc(-n2nc(C(F)(F)F)n(C)c2=O)c(F)cc1C(N)=S (stereo not drawn) [Example 32]
[1]; 30 g/ha
  degree of damage, Chenopodium: 100%
[2]; 30 g/ha
  degree of damage, Maize: 0%
[4]; 30 g/ha
  degree of damage, Solanum: 100%
[5]; 30 g/ha
  degree of damage, Amaranthus: 100%
[6]; 30 g/ha
  degree of damage, Wheat: 10%
[7]; 30 g/ha
  degree of damage, Portulaca: 95%
[8]; 30 g/ha
  degree of damage, Matricaria: 100%
[9]; 4 g/ha
  degree of damage, Chenopodium: 95%
[10]; 4 g/ha
  degree of damage, Maize: 30%
[11]; 4 g/ha
  degree of damage, Abuthilon: 100%
[12]; 4 g/ha
  degree of damage, Veronica: 100%
[13]; 4 g/ha
  degree of damage, Solanum: 100%
[14]; 4 g/ha
  degree of damage, Amaranthus: 100%
[15]; 4 g/ha
  degree of damage, Wheat: 15%

## COCCOCCOc1cc(-n2nc(C)n(C(F)F)c2=O)c(F)cc1C(N)=S [Example 51]
[1]; 30 g/ha
  degree of damage, Chenopodium: 100%
[2]; 30 g/ha
  degree of damage, Maize: 20%
[3]; 30 g/ha
  degree of damage, Abuthilon: 100%
[4]; 30 g/ha
  degree of damage, Solanum: 100%
[6]; 30 g/ha
  degree of damage, Wheat: 0%
[7]; 30 g/ha
  degree of damage, Portulaca: 100%
[8]; 30 g/ha
  degree of damage, Matricaria: 95%
[9]; 15 g/ha
  degree of damage, Chenopodium: 70%
[10]; 15 g/ha
  degree of damage, Maize: 60%
[11]; 15 g/ha
  degree of damage, Abuthilon: 100%
[12]; 15 g/ha
  degree of damage, Veronica: 100%
[13]; 15 g/ha
  degree of damage, Solanum: 100%
[14]; 15 g/ha
  degree of damage, Amaranthus: 100%
[15]; 15 g/ha
  degree of damage, Wheat: 15%
